Where “and” joins values, the source holds several entries; their conditions need not be identical. Identical values can stand only once.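 A five-concentration, 48-hour dose response in 96-well plates underlies each endpoint, interpolated linearly between surrounding concentrations. The concentration for 50% growth inhibition is given as GI50. At the TGI there is no net growth.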
Experiments:
Test in all cases: NCI tumour cell line growth inhibition, 48 h
[1] = test system: ACHN renal
[2] = test system: SK-MEL-5 melanoma
[3] = test system: HT29 colon
[4] = test system: MOLT-4 leukemia
[5] = test system: HCT-116 colon
[6] = test system: EKVX NSCLC
[7] = test system: A549 NSCLC
[8] = test system: HOP-92 NSCLC
[9] = test system: K-562 leukemia
[10] = test system: SNB-75 CNS

| SMILES | TGI [1] | TGI [2] | TGI [3] | TGI [4] | TGI [5] | TGI [6] | TGI [7] | TGI [8] | TGI [9] | TGI [10] | GI50 [1] | GI50 [2] | GI50 [3] | GI50 [4] | GI50 [5] | GI50 [6] | GI50 [7] | GI50 [9] | GI50 [10] | GI50 [8] |
| --- | --- | --- | --- | --- | --- | --- | --- | --- | --- | --- | --- | --- | --- | --- | --- | --- | --- | --- | --- | --- |
| CN1c2ccccc2S(=O)(=O)n2c(COc3ccc(Cl)cc3)nnc21 | > 100 µM | > 100 µM | > 100 µM | > 100 µM | > 100 µM | > 100 µM | > 100 µM | 63.2 µM | > 100 µM | – | – | – | – | – | – | – | – | – | – | – |
| COc1ccc2c(=O)c3cc([N+](=O)[O-])ccc3n(C)c2c1 | > 100 µM | > 100 µM | – | > 100 µM | – | > 100 µM | > 100 µM | > 100 µM | > 100 µM | > 100 µM | – | – | – | – | – | – | – | – | – | – |
| Cc1cc(NS(=O)(=O)c2ccc(NC(=O)c3cccc4c(Nc5ccc(S(=O)(=O)Nc6cc(C)on6)cc5)c5ccccc5nc34)cc2)no1 | > 100 µM | > 100 µM | > 100 µM | 95.4 µM | – | > 100 µM | > 100 µM | 41 µM | > 100 µM | 77.4 µM | – | – | – | – | – | – | – | – | – | – |
| CNc1ccc(-c2cc(=O)oc3ccc(Cl)cc23)cc1 | > 100 µM | 1.11 µM and 2.56 µM | 0.496 µM | 50.1 µM | 5.23 µM | > 100 µM | > 100 µM | 7.96 µM | > 100 µM | – | 0.104 µM and 0.0558 µM | 0.121 µM and 0.0772 µM | 0.297 µM and 0.139 µM | 0.108 µM and 0.0626 µM | 0.044 µM | 0.589 µM and 0.279 µM | 0.137 µM and 0.0856 µM | 0.0312 µM and 0.0363 µM | – | – |
| CCC[CH2][Sn]([CH2]CCC)([O]C(=O)c1nccnc1N)[O]C(=O)c1nccnc1N | 2.19 µM | 2.49 µM | 3.05 µM | 1.1 µM | 2.3 µM | 2.18 µM | 12.7 µM | 2.43 µM | – | 2.12 µM | 1.02 µM | 1.24 µM | 1.59 µM | 0.257 µM | 1.1 µM | 1.02 µM | 3.52 µM | – | 0.87 µM | 1.16 µM |
| NCC1OC(OC2C(CO)OC(OC3C(O)C(N)CC(N)C3OC3OC(CO)C(O)C(O)C3N)C2O)C(N)C(O)C1O (configuration not stated) | > 50 µg/mL | – | > 50 µg/mL | – | > 50 µg/mL | > 50 µg/mL | > 50 µg/mL | > 50 µg/mL | > 50 µg/mL | > 50 µg/mL | > 50 µg/mL | – | > 50 µg/mL | – | > 50 µg/mL | > 50 µg/mL | > 50 µg/mL | > 50 µg/mL | > 50 µg/mL | > 50 µg/mL |
| COC(=O)Nc1nc2cc3c(cc2s1)OCCO3 | > 50 µM | > 50 µM | > 50 µM | > 50 µM | > 50 µM | – | > 50 µM | > 50 µM | > 50 µM | > 50 µM | > 50 µM | > 50 µM | > 50 µM | > 50 µM | > 50 µM | – | > 50 µM | > 50 µM | > 50 µM | > 50 µM |
| CC1(C)CC2C=C(C=O)C3(C=O)CC3(C)C2C1 (configuration not stated) | 2.83 µM | 3.51 µM | 4.54 µM | 1.15 µM | 2.21 µM | 7.5 µM | 27.2 µM | 3.97 µM | – | 7.56 µM | – | – | – | – | – | – | – | – | – | – |
| COC(=O)C1CCC(Nc2cccc(C(F)(F)F)c2)=N1 (configuration not stated) | > 100 µM | – | > 100 µM | > 100 µM | > 100 µM | > 100 µM | > 100 µM | > 100 µM | > 100 µM | > 100 µM | – | – | – | – | – | – | – | – | – | – |
| O=C(O)C1c2ccccc2C(C(=O)O)c2ccccc21 (configuration not stated) | > 100 µM | > 100 µM | > 100 µM | > 100 µM | > 100 µM | – | > 100 µM | > 100 µM | > 100 µM | > 100 µM | – | – | – | – | – | – | – | – | – | – |

Source: PubChem BioAssay (NCI)
